Square brackets hold non-standard residues; d marks the D form. Peptide text beside a SMILES is read from it. 2Thi = N[C@@H](Cc1cccs1)C(=O)O
Legend:
bovine α-thrombin = bovine α-thrombin (Bos taurus, UniProt P00735); assay: Inhibition of thrombin's hydrolytic activity towards chromogenic substrate S2238; format: biochemical; details: bovine α-thrombin 5 nM, 25°C, pH 7.46
Description: In a first instance, the inhibitory constants (Ki) for all peptides were determined using pseudo-first order kinetics. […] Substrate hydrolysis at 25°C, in sodium phosphate buffer pH 7.46, with 0.2 M NaCl and 50 µg/ml bovine serum albumin was monitored in real-time at 405 nm using a thermostated spectrophotometer (Cary), assuring that the hydrolysis of the chromogenic substrate was complete. Each kinetic trace was fitted to a first-order reaction mathematical model (At = A0*e^−kt or At = A0+a*(1−e^−kt)). The Ki was determined from the equation Ki = [I]/(kobs uninhibited/kobs inhibited−1), where kobs is the pseudo-first order rate constant and [I] is the molar inhibitor concentration. For the inhibitors that were structurally characterized, the kinetic parameters of S2238 hydrolysis and the type of inhibition were determined using 5 nM bovine α-thrombin (Sigma) and varying concentrations of both substrate (0–200 µM) and peptide inhibitors (0–50 µM). The data was fitted to a competitive enzyme inhibition model using Prism5 (GraphPad Software) and the built-in nonlinear regression global analysis package to determine the values for Ki, KM and Vmax. The goodness of fit was assessed using the built-in statistical analysis package, which enabled the calculation of R^2 values.

factor Xa = molecular target: T1, factor Xa (Homo sapiens, UniProt P00742); assay: Inhibitory activity towards factor Xa (chromogenic substrate S2222); format: biochemical; details: for Ki: factor Xa 15 nM, S2222 0.18 mM, Ki = IC50/(1+S/KM), competitive mechanism assumed; for selectivity for thrombin versus factor Xa: ratio of Ki values, thrombin vs factor Xa
T1 construct: Factor Xa (15 nM; American Diagnostica); purchased American Diagnostica
T1 sequence (P00742 235-488 limits assumed): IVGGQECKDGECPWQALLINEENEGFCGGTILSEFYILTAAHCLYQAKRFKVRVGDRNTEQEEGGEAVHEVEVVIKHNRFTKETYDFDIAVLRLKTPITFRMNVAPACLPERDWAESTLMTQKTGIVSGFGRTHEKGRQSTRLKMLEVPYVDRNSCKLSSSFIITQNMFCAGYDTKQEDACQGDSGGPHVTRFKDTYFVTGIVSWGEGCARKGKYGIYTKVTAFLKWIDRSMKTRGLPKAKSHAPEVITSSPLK
T1 sequence (P00742 41-179 partner limits assumed): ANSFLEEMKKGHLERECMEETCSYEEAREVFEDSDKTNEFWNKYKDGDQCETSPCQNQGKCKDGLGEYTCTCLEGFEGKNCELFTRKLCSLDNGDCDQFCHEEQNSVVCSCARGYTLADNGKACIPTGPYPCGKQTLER
Description: (§1) Factor Xa (15 nM; American Diagnostica) or trypsin (25 nM; Sigma) was incubated for 15 min at room temperature with 20–1600 µM of fPrI, fPrC or fPrt in 50 mM Tris-HCl pH 8.0 and 150 mM NaCl (factor Xa) or 50 mM Tris-HCl pH 8.0, 150 mM NaCl and 160 mM CaCl2 prior to substrate addition. The chromogenic substrates were S2222 (Nα-Benzoyl-L-isoleucyl-L-glutamyl-glycyl-L-arginine-4-nitroanilide hydrochloride; American Diagnostica) for factor Xa or BAPNA (Nα-Benzoyl-L-arginine-4-nitroanilide hydrochloride; Sigma) for trypsin. Substrate hydrolysis was monitored at 405 (S2222) or 410 nm (BAPNA) using a thermostated spectrophotometer (Cary). IC50 values were determined using the built in equation provided by Prism5 (GraphPad Software).

trypsin = molecular target: T2, trypsin (Bos taurus, UniProt P00760); assay: Inhibitory activity towards trypsin (chromogenic substrate BAPNA); format: biochemical; details: for selectivity for thrombin versus trypsin: ratio of Ki values, thrombin vs trypsin; for Ki: trypsin 25 nM, BAPNA 1.84 mM, Ki = IC50/(1+S/KM), competitive mechanism assumed
T2 sequence (P00760 24-246): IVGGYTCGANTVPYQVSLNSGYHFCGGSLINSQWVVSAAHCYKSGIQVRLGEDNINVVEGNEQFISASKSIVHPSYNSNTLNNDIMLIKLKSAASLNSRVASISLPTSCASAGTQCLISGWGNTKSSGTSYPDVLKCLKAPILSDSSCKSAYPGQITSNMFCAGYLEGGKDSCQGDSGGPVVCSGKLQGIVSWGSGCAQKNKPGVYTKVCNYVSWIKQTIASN
Description: as §1

α-thrombin = α-thrombin (Bos taurus, UniProt P00735); assay: Inhibitor resistance to proteolysis by thrombin (ESI mass spectrometry); format: in vitro ADME; details: 20 µM peptide with 20 µM α-thrombin, 24 h, room temperature, pH 7.46, mass spectrometry
Description: After 24 h incubation, aliquots were removed and the reaction was quenched with 0.1% TFA. The samples were analyzed on an ESI spectrometer run in the positive mode. As the expected molecular mass of the tripeptide resulting from the hydrolysis of the D-Arg-P1′ peptide bond is 418.5 Da, spectra were acquired in the 400–1000 Da window.

## C[C@@H](O)[C@H](NC(=O)[C@@H](CCCNC(=N)N)NC(=O)[C@@H]1CCCN1C(=O)[C@H](N)Cc1ccccc1)C(N)=O [Peptide 15, D-Phe-Pro-D-Arg-Thr] (H-[dF]P[dR]T-NH2)
Bovine α-thrombin
  Ki: 12.5 ± 0.35 µM

## C[C@H](NC(=O)[C@@H](CCCNC(=N)N)NC(=O)[C@@H]1CCCN1C(=O)[C@H](N)Cc1ccccc1)C(N)=O [Peptide 1, D-Phe-Pro-D-Arg-Ala] (H-[dF]P[dR]A-NH2; N-terminus assumed)
Bovine α-thrombin
  Ki: 16.6 ± 0.8 µM

## N=C(N)NCCC[C@@H](NC(=O)[C@@H]1CCCN1C(=O)[C@H](N)Cc1ccccc1)C(=O)N[C@H](CO)C(N)=O [Peptide 18, D-Phe-Pro-D-Arg-D-Ser] (H-[dF]P[dR][dS]-NH2)
Bovine α-thrombin
  Ki: 12.3 ± 0.08 µM

## C[C@H](O)[C@@H](NC(=O)[C@@H](CCCNC(=N)N)NC(=O)[C@@H]1CCCN1C(=O)[C@H](N)Cc1ccccc1)C(N)=O [Peptide 16, D-Phe-Pro-D-Arg-D-Thr] (H-[dF]P[dR][dT]-NH2)
Bovine α-thrombin
  Ki: 0.92 ± 0.08 µM
Factor Xa
  Ki: 103 ± 1.44 µM
  selectivity for thrombin versus factor Xa: 110 fold
trypsin
  selectivity for thrombin versus trypsin: 420 fold
  Ki: 389 ± 5.5 µM
α-thrombin
  Stability against thrombin hydrolysis (cleavage product D-Phe-Pro-D-Arg, 418.5 Da): could not be identified

## CC(C)[C@H](NC(=O)[C@@H](CCCNC(=N)N)NC(=O)[C@@H]1CCCN1C(=O)[C@H](N)Cc1ccccc1)C(N)=O [Peptide 13, D-Phe-Pro-D-Arg-Val] (H-[dF]P[dR]V-NH2)
Bovine α-thrombin
  Ki: 56.3 ± 1.5 µM

## CC[C@H](C)[C@H](NC(=O)[C@@H](CCCNC(=N)N)NC(=O)[C@@H]1CCCN1C(=O)[C@H](N)Cc1ccccc1)C(N)=O [Peptide 23, D-Phe-Pro-D-Arg-Ile] (H-[dF]P[dR]I-NH2)
Bovine α-thrombin
  Ki: 7.7 ± 0.73 µM
Factor Xa
  Ki: 7300 µM
trypsin
  selectivity for thrombin versus trypsin: 12 fold
  Ki: 90.2 ± 2.8 µM
α-thrombin
  Stability against thrombin hydrolysis (cleavage product D-Phe-Pro-D-Arg, 418.5 Da): could not be identified

## N=C(N)NCCC[C@H](NC(=O)[C@@H](CCCNC(=N)N)NC(=O)[C@@H]1CCCN1C(=O)[C@H](N)Cc1ccccc1)C(N)=O [Peptide 4, D-Phe-Pro-D-Arg-Arg] (H-[dF]P[dR]R-NH2)
Bovine α-thrombin
  Ki: 91.1 ± 8.2 µM

## N=C(N)NCCC[C@@H](NC(=O)[C@@H]1CCCN1C(=O)[C@H](N)Cc1ccccc1)C(=O)N1CCC[C@@H]1C(N)=O [Peptide 10, D-Phe-Pro-D-Arg-D-Pro] (H-[dF]P[dR][dP]-NH2)
Bovine α-thrombin
  Ki: 489 ± 113 µM

## N=C(N)NCCC[C@@H](NC(=O)[C@@H]1CCCN1C(=O)[C@H](N)Cc1ccccc1)C(=O)N[C@@H](CCC(N)=O)C(N)=O [Peptide 21, D-Phe-Pro-D-Arg-Gln] (H-[dF]P[dR]Q-NH2)
Bovine α-thrombin
  Ki: 43.1 ± 2.6 µM

## N=C(N)NCCC[C@@H](NC(=O)[C@@H]1CCCN1C(=O)[C@H](N)Cc1ccccc1)C(=O)NCC(N)=O [Peptide 3, D-Phe-Pro-D-Arg-Gly] (H-[dF]P[dR]G-NH2)
Bovine α-thrombin
  Ki: 5.9 ± 0.2 µM

## N=C(N)NCCC[C@@H](NC(=O)[C@@H]1CCCN1C(=O)[C@H](N)Cc1ccccc1)C(=O)N[C@H](CS)C(N)=O [Peptide 20, D-Phe-Pro-D-Arg-D-Cys] (H-[dF]P[dR][dC]-NH2)
Bovine α-thrombin
  Ki: 2.4 ± 0.05 µM

## N=C(N)NCCC[C@@H](NC(=O)[C@@H]1CCCN1C(=O)[C@H](N)Cc1ccccc1)C(=O)N[C@@H](CCC(=O)O)C(N)=O [Peptide 6, D-Phe-Pro-D-Arg-Glu] (H-[dF]P[dR]E-NH2)
Bovine α-thrombin
  Ki: 556 ± 89.6 µM

## N=C(N)NCCC[C@@H](NC(=O)[C@@H]1CCCN1C(=O)[C@H](N)Cc1ccccc1)C(=O)N[C@@H](CO)C(N)=O [Peptide 17, D-Phe-Pro-D-Arg-Ser] (H-[dF]P[dR]S-NH2)
Bovine α-thrombin
  Ki: 17.1 ± 0.8 µM

## N=C(N)NCCC[C@@H](NC(=O)[C@@H]1CCCN1C(=O)[C@H](N)Cc1ccccc1)C(=O)N[C@@H](Cc1ccc(O)cc1)C(N)=O [Peptide 12, D-Phe-Pro-D-Arg-Tyr] (H-[dF]P[dR]Y-NH2)
Bovine α-thrombin
  Ki: 50.5 ± 3.4 µM

## CSCC[C@H](NC(=O)[C@@H](CCCNC(=N)N)NC(=O)[C@@H]1CCCN1C(=O)[C@H](N)Cc1ccccc1)C(N)=O [Peptide 28, D-Phe-Pro-D-Arg-Met] (H-[dF]P[dR]M-NH2)
Bovine α-thrombin
  Ki: 37.2 ± 2.5 µM

## N=C(N)NCCC[C@@H](NC(=O)[C@@H]1CCCN1C(=O)[C@H](N)Cc1ccccc1)C(=O)N[C@@H](CS)C(N)=O [Peptide 19, D-Phe-Pro-D-Arg-Cys] (H-[dF]P[dR]C-NH2)
Bovine α-thrombin
  Ki: 16.5 ± 1.5 µM
Factor Xa
  Ki: 41.4 ± 2.6 µM
  selectivity for thrombin versus factor Xa: 3 fold
trypsin
  selectivity for thrombin versus trypsin: 20 fold
  Ki: 377.1 ± 3.6 µM
α-thrombin
  Stability against thrombin hydrolysis (cleavage product D-Phe-Pro-D-Arg, 418.5 Da): could not be identified

## N=C(N)NCCC[C@@H](NC(=O)[C@@H]1CCCN1C(=O)[C@H](N)Cc1ccccc1)C(=O)N[C@@H](Cc1cccs1)C(N)=O [Peptide 27, D-Phe-Pro-D-Arg-Thi] (H-[dF]P[dR][2Thi]-NH2)
Bovine α-thrombin
  Ki: 8.16 ± 0.35 µM

## CC(C)C[C@@H](NC(=O)[C@@H](CCCNC(=N)N)NC(=O)[C@@H]1CCCN1C(=O)[C@H](N)Cc1ccccc1)C(N)=O [Peptide 26, D-Phe-Pro-D-Arg-D-Leu] (H-[dF]P[dR][dL]-NH2)
Bovine α-thrombin
  Ki: 4.13 ± 0.24 µM

## N=C(N)NCCC[C@@H](NC(=O)[C@@H]1CCCN1C(=O)[C@H](N)Cc1ccccc1)C(=O)N[C@@H](Cc1ccccc1)C(N)=O [Peptide 8, D-Phe-Pro-D-Arg-Phe] (H-[dF]P[dR]F-NH2)
Bovine α-thrombin
  Ki: 250 ± 20 µM

## CC[C@@H](C)[C@@H](NC(=O)[C@@H](CCCNC(=N)N)NC(=O)[C@@H]1CCCN1C(=O)[C@H](N)Cc1ccccc1)C(N)=O [Peptide 24, D-Phe-Pro-D-Arg-D-Ile] (H-[dF]P[dR][dI]-NH2)
Bovine α-thrombin
  Ki: 7.44 ± 0.5 µM

## C[C@@H](NC(=O)[C@@H](CCCNC(=N)N)NC(=O)[C@@H]1CCCN1C(=O)[C@H](N)Cc1ccccc1)C(N)=O [Peptide 2, D-Phe-Pro-D-Arg-D-Ala] (H-[dF]P[dR][dA]-NH2)
Bovine α-thrombin
  Ki: 2.06 ± 0.04 µM

## N=C(N)NCCC[C@@H](NC(=O)[C@@H]1CCCN1C(=O)[C@H](N)Cc1ccccc1)C(=O)N1CCC[C@H]1C(N)=O [Peptide 9, D-Phe-Pro-D-Arg-Pro] (H-[dF]P[dR]P-NH2)
Bovine α-thrombin
  Ki: 89.5 ± 5.5 µM

## CC(C)C[C@H](NC(=O)[C@@H](CCCNC(=N)N)NC(=O)[C@@H]1CCCN1C(=O)[C@H](N)Cc1ccccc1)C(N)=O [Peptide 25, D-Phe-Pro-D-Arg-Leu] (H-[dF]P[dR]L-NH2)
Bovine α-thrombin
  Ki: 20.6 ± 4.5 µM

## N=C(N)NCCC[C@@H](NC(=O)[C@@H]1CCCN1C(=O)[C@H](N)Cc1ccccc1)C(=O)N[C@H](CCC(N)=O)C(N)=O [Peptide 22, D-Phe-Pro-D-Arg-D-Gln] (H-[dF]P[dR][dQ]-NH2)
Bovine α-thrombin
  Ki: 19.3 ± 0.6 µM

## N=C(N)NCCC[C@@H](NC(=O)[C@@H]1CCCN1C(=O)[C@H](N)Cc1ccccc1)C(=O)N[C@@H](Cc1c[nH]c2ccccc12)C(N)=O [Peptide 11, D-Phe-Pro-D-Arg-Trp] (H-[dF]P[dR]W-NH2)
Bovine α-thrombin
  Ki: 65.6 ± 7.2 µM

## N=C(N)NCCC[C@@H](NC(=O)[C@@H]1CCCN1C(=O)[C@H](N)Cc1ccccc1)C(=O)N[C@@H](CCCCN)C(N)=O [Peptide 5, D-Phe-Pro-D-Arg-Lys] (H-[dF]P[dR]K-NH2)
Bovine α-thrombin
  Ki: 66.6 ± 6.5 µM

## N=C(N)NCCC[C@@H](NC(=O)[C@@H]1CCCN1C(=O)[C@H](N)Cc1ccccc1)C(=O)N[C@@H](Cc1c[nH]cn1)C(N)=O [Peptide 7, D-Phe-Pro-D-Arg-His] (H-[dF]P[dR]H-NH2)
Bovine α-thrombin
  Ki: 122 ± 9.5 µM

## CC(C)[C@@H](NC(=O)[C@@H](CCCNC(=N)N)NC(=O)[C@@H]1CCCN1C(=O)[C@H](N)Cc1ccccc1)C(N)=O [Peptide 14, D-Phe-Pro-D-Arg-D-Val] (H-[dF]P[dR][dV]-NH2)
Bovine α-thrombin
  Ki: 2.17 ± 0.6 µM

Source: publication PMC3311629, “Rational Design and Characterization of D-Phe-Pro-D-Arg-Derived Direct Thrombin Inhibitors” (PLoS ONE, 2012)
